Measured values: patent US8940727B2, “Benzazepine compound” (Otsuka Pharmaceutical Co., Ltd., priority 2009, dated 2015)

Assay: Metabolic stability assay in human liver microsomes
Assay type: in vitro ADME
Conditions: for microsomal CLint at 1 μM: human liver microsomes 0.2 mg/mL, test compound 1 μM, NADPH/NADH, n = 4, read-out: hepatic intrinsic clearance (Clint)
Protocol: The following reaction system was prepared with reference to the method disclosed by Obach, and that disclosed by Jones et al. (References 1 and 2), and the metabolic stability thereof was evaluated. Note that the human liver microsomes used were purchased from BD Gentest. The test compound was dissolved in DMSO to have a concentration of 10 mM and diluted with acetonitrile in such a manner that its concentration became 100 μM.
A reaction system without a coenzyme was preincubated at 37° C. for 5 minutes, and a coenzyme was then added to start the reaction. After the addition of the coenzyme, the incubation was performed at selected time intervals, i.e., 0, 5, 10, 20, 30 and 60 minutes to extract a portion of the reaction mixture. The extracted reaction mixture was added to an acetonitrile solution containing an internal standard substance and the reaction was then terminated.
After the reaction was terminated, the resulting mixture was centrifuged, the supernatant was poured into a liquid chromatograph tandem mass spectrometer (LC-MS/MS) to determine the level of unchanged substance remaining in the reaction system. Ionization was performed by electro-spray ionization (ESI) in a positive ion detection mode. Here, selected reaction monitoring (MRM) using preset precursor ions and product ions was employed.
The remaining ratio of the test compound was calculated by the following equation. Remaining ratio=(peak area of the test compound at the reaction time of t minutes/peak area of the internal standard substance)÷(peak area of the test compound at the reaction time of 0 minutes/peak area of the internal standard substance)
A nonlinear least-squares analysis was performed in terms of the remaining ratio and incubation time to obtain the elimination rate constant (0.693/t1/2), and, further, the hepatic intrinsic clearance (Clint) was obtained using the following Formula (1). Clint (μL/min/mg)=(0.693/t1/2)÷0.2 (mg/mL)×1000 (1) […]

SMILES | microsomal CLint at 1 μM [µL/min/mg] | metabolic stability compared to tolvaptan (human liver microsomes, two-tailed Dunnett's test, p<0.001)
Cc1ccccc1C(=O)Nc1ccc(C(=O)N2CCCC(O)c3cc(Cl)ccc32)c(C)c1 (stereo not drawn) [Tolvaptan, tolvaptan, reference compound] | 214 ± 4.3 | –
[2H]C1([2H])CC([2H])([2H])C([2H])(O)c2cc(Cl)ccc2N1C(=O)c1ccc(NC(=O)c2ccccc2C)cc1C (stereo not drawn) [Example 4, N-(4-(7-chloro-5-hydroxy-2,2,4,4,5-pentadeutero-1H-benzo[b]azepine-1-carbonyl)-3-methylphenyl)-2-methylbenzamide] | 166 ± 5.3 | significantly improved metabolic stability compared to tolvaptan
